Laboratory results: ChEMBL document CHEMBL3885881, “DrugMatrix”

Organism: Rattus norvegicus
Experiment: DrugMatrix - Regimen: Daily Repeat
Format: toxicity, organism-based, Sprague-Dawley
Set-up: regimen Daily Repeat, gender Male, age 6-8 weeks
Settings: in vivo, sc, route subcutaneous, […]; for ABSOLUTE BASOPHIL / ABSOLUTE EOSINOPHIL / ABSOLUTE LYMPHOCYTE / ABSOLUTE MONOCYTE / ABSOLUTE SEGMENTED NEUTROPHIL / BASOPHIL / EOSINOPHIL / ERYTHROCYTE COUNT / HEMATOCRIT / LEUKOCYTE COUNT / MEAN CORPUSCULAR HEMOGLOBIN / MEAN CORPUSCULAR HEMOGLOBIN CONCENTRATION / MEAN CORPUSCULAR VOLUME / MONOCYTE / NEUTROPHIL / NUCLEATED RED BLOOD CELLS / PLATELET COUNT: tissue Blood; for ALANINE AMINOTRANSFERASE / ALBUMIN / ALKALINE PHOSPHATASE / ASPARTATE AMINOTRANSFERASE / BLOOD UREA NITROGEN / CHLORIDE / CHOLESTEROL / CREATINE PHOSPHOKINASE / CREATININE / GLUCOSE / LACTATE DEHYDROGENASE / LIPASE / PHOSPHORUS / POTASSIUM / TOTAL BILIRUBIN / URIC ACID: tissue Plasma
[1] = 79 mg/kg, 120 h, dose level High, time 5 day
[2] = 72 h, dose 1.3 mg/Kg, dose level Low, time 3 day
[3] = 120 h, dose 1.3 mg/Kg, dose level Low, time 5 day

## C[C@H]1C[C@H]2[C@@H]3CCC4=CC(=O)C=C[C@]4(C)[C@@]3(F)[C@@H](O)C[C@]2(C)[C@@]1(O)C(=O)CO [BETAMETHASONE]
[1]
  ABSOLUTE BASOPHIL: 0 CELLS/uL
  ABSOLUTE EOSINOPHIL: 0 CELLS/uL
  ABSOLUTE LYMPHOCYTE: 513.67 CELLS/uL
  ABSOLUTE MONOCYTE: 201.67 CELLS/uL
  ABSOLUTE SEGMENTED NEUTROPHIL: 19451.33 CELLS/uL
  BASOPHIL: 0%
  EOSINOPHIL: 0%
  ERYTHROCYTE COUNT: 5.57 x10E6/uL
  HEMATOCRIT: 34.53%
  LEUKOCYTE COUNT: 20.17 x10E3/uL
  MEAN CORPUSCULAR HEMOGLOBIN: 23.77 pg
  MEAN CORPUSCULAR HEMOGLOBIN CONCENTRATION: 38.47 G/DL
  MEAN CORPUSCULAR VOLUME: 61.87 fL
  MONOCYTE: 1%
  NEUTROPHIL: 95%
  NUCLEATED RED BLOOD CELLS: 0 /100WBC
  PLATELET COUNT: 893 x10E3/uL
  ALANINE AMINOTRANSFERASE: 251.67 u/L
  ALBUMIN: 4.5 G/DL
  ALKALINE PHOSPHATASE: 329 u/L
  ASPARTATE AMINOTRANSFERASE: 307.33 u/L
  BLOOD UREA NITROGEN: 21.67 mg/dL
  CHLORIDE: 93.67 MEQ/L
  CHOLESTEROL: 105 mg/dL
  CREATINE PHOSPHOKINASE: 200.33 u/L
  CREATININE: 0.3 mg/dL
  GLUCOSE: 505.67 mg/dL
  LACTATE DEHYDROGENASE: 602 u/L
  LIPASE: 11.33 u/L
  PHOSPHORUS: 11.1 mg/dL
  POTASSIUM: 5.39 MEQ/L
  TOTAL BILIRUBIN: 0.23 mg/dL
  URIC ACID: 1 mg/dL
[2]
  ABSOLUTE BASOPHIL: 0 CELLS/uL
  ABSOLUTE EOSINOPHIL: 15.33 CELLS/uL
  ABSOLUTE LYMPHOCYTE: 4290.33 CELLS/uL
  ABSOLUTE MONOCYTE: 15.33 CELLS/uL
  ABSOLUTE SEGMENTED NEUTROPHIL: 845.67 CELLS/uL
  BASOPHIL: 0%
  EOSINOPHIL: 0.33%
  ERYTHROCYTE COUNT: 5.47 x10E6/uL
  HEMATOCRIT: 33.27%
  LEUKOCYTE COUNT: 5.17 x10E3/uL
  MEAN CORPUSCULAR HEMOGLOBIN: 24.57 pg
  MEAN CORPUSCULAR HEMOGLOBIN CONCENTRATION: 40.37 G/DL
  MEAN CORPUSCULAR VOLUME: 60.9 fL
  MONOCYTE: 0.33%
  NEUTROPHIL: 17%
  NUCLEATED RED BLOOD CELLS: 0 /100WBC
  PLATELET COUNT: 1195.33 x10E3/uL
  ALANINE AMINOTRANSFERASE: 49.67 u/L
  ALBUMIN: 5.1 G/DL
  ALKALINE PHOSPHATASE: 401.67 u/L
  ASPARTATE AMINOTRANSFERASE: 97 u/L
  BLOOD UREA NITROGEN: 15 mg/dL
  CHLORIDE: 98.67 MEQ/L
  CHOLESTEROL: 79.33 mg/dL
  CREATINE PHOSPHOKINASE: 415.33 u/L
  CREATININE: 0.19 mg/dL
  GLUCOSE: 120 mg/dL
  LACTATE DEHYDROGENASE: 165.33 u/L
  LIPASE: 11 u/L
  PHOSPHORUS: 11.13 mg/dL
  POTASSIUM: 6.2 MEQ/L
  TOTAL BILIRUBIN: 0.17 mg/dL
  URIC ACID: 0.9 mg/dL
[3]
  ABSOLUTE BASOPHIL: 0 CELLS/uL
  ABSOLUTE EOSINOPHIL: 75.67 CELLS/uL
  ABSOLUTE LYMPHOCYTE: 4789.67 CELLS/uL
  ABSOLUTE MONOCYTE: 25 CELLS/uL
  ABSOLUTE SEGMENTED NEUTROPHIL: 1976.33 CELLS/uL
  BASOPHIL: 0%
  EOSINOPHIL: 1%
  ERYTHROCYTE COUNT: 6.27 x10E6/uL
  HEMATOCRIT: 38.47%
  LEUKOCYTE COUNT: 6.87 x10E3/uL
  MEAN CORPUSCULAR HEMOGLOBIN: 24.07 pg
  MEAN CORPUSCULAR HEMOGLOBIN CONCENTRATION: 39.23 G/DL
  MEAN CORPUSCULAR VOLUME: 61.3 fL
  MONOCYTE: 0.33%
  NEUTROPHIL: 30.33%
  NUCLEATED RED BLOOD CELLS: 0 /100WBC
  PLATELET COUNT: 1459.67 x10E3/uL
  ALANINE AMINOTRANSFERASE: 71 u/L
  ALBUMIN: 5.1 G/DL
  ALKALINE PHOSPHATASE: 397 u/L
  ASPARTATE AMINOTRANSFERASE: 114 u/L
  BLOOD UREA NITROGEN: 17.33 mg/dL
  CHLORIDE: 102.67 MEQ/L
  CHOLESTEROL: 70.33 mg/dL
  CREATINE PHOSPHOKINASE: 195.67 u/L
  CREATININE: 0.16 mg/dL
  GLUCOSE: 164.67 mg/dL
  LACTATE DEHYDROGENASE: 354.67 u/L
  LIPASE: 9.67 u/L
  PHOSPHORUS: 13.03 mg/dL
  POTASSIUM: 7 MEQ/L
  TOTAL BILIRUBIN: 0.2 mg/dL
  URIC ACID: 1.8 mg/dL
